# Experimental data from US20230165906A1, “COMPOSITIONS AND METHODS FOR USING TRANSPLANTED MICROGLIA AS A VEHICLE FOR WIDESPREAD DELIVERY OF CELLS AND OTHER BIOLOGIC AGENTS TO THE BRAIN” (Albert Einstein College of Medicine, priority 2020, published 2023).
# Tests used:
# [1] = test system: cultured human primary microglia; experiment: Screening of human microglia for resistance to PLX5622-induced cell death; format: cell-based; details: for resistance to PLX5622-mediated cell ablation: mutant CSF1R expressed in cultured human primary microglia via retrovirus infection
# From the text: (§1) FIGS. 5A-I show screening of human and mouse microglia for resistance to PLX5622. Human microglia (5A) are normally susceptible to CSF1R antagonist PLX5622-induced cell death (5B). […] Similarly, mouse microglia (5G) are normally susceptible to CSF1R antagonist-induced cell death (5H).
# Although dispersion of mouse microglia was achieved using the protocol described in Example 2, continued genetic ablation of host microglia after transplantation of donor microglia cannot likely be used in a clinical setting. Therefore, to achieve dispersion of microglia independent of any genetic manipulations, a novel method to make microglia resistant to ablation by a CSF1R inhibitor such as PLX5622 was developed. Based on the mechanism of action of PLX5622 (antagonizing the critical CSF1R receptor), mutant forms of CSF1R that are constitutively active and potentially convey resistance to PLX5622 were screened (FIG. 5). […] Mutant CSF1Rs were expressed in human donor microglia via retrovirus infection. Such PLX5622-resistant microglia can then be transplanted to hosts in which endogenous microglia are continuously being depleted pharmacologically with PLX5622 post transplantation to allow donor microglia to outcompete residual endogenous microglia for repopulation. We are currently testing resistance of microglia expressing CSFIR^L301S and others to PLX5622 ablation in vivo.
# host microglia = experiment: Pharmacological ablation of host microglia in vivo (Iba1 staining); details: PLX5622 given to mice via chow for 7 days prior to transplantation
# From the text: For pharmacological ablation of host microglia, PLX5622 (Plexxikon Inc.), a drug that inhibits CSF1R, was given to the mice via chow for 7 days prior to transplantation. This treatment kills approximately 90% of host microglia (FIG. 3). PLX5622 is a blood-brain-barrier permeable drug in clinical trials. Two days before transplantation, PLX5622 treatment was stopped to avoid potentially killing donor cells. […]. Thus, with daily injection of tamoxifen, donor microglia outcompete host microglia for repopulation.
# mouse microglia = experiment: Screening of mouse microglia for resistance to PLX5622-induced cell death; format: cell-based; details: no mutant CSF1R
# From the text: as §1
Compound,resistance to PLX5622-mediated cell ablation [1],host microglia killed (host microglia),"susceptibility to CSF1R antagonist PLX5622-induced cell death ([1]; human microglia, no mutant CSF1R)",susceptibility to CSF1R antagonist-induced cell death (mouse microglia)
CSR1R^Y969F: constitutively active gain-of-function mutant CSF1R expressed in donor microglia,high resistance,,,
CSR1R^Y571D: constitutively active gain-of-function mutant CSF1R expressed in donor microglia,high resistance,,,
"COc1ncc(F)cc1CNc1ccc(Cc2c[nH]c3ncc(C)cc23)c(F)n1 [PLX5622, 6-fluoro-N-[(5-fluoro-2-methoxypyridin-3-yl)methyl]-5-[(5-methyl-1H-pyrrolo[2,3-b]pyridin-3-yl)methyl]pyridin-2-amine]",,approximately 90%,susceptible,susceptible
CSF1R^L301S: constitutively active gain-of-function mutant CSF1R expressed in donor microglia,high resistance,,,
